# Legend:
# [1] = Plasma stability; assay type: in vitro ADME; settings: plasma (rat, Sprague-Dawley)
# Text: (§1) Table 3 In vitro physicochemical, stability and metabolism data. | column: Value
# [2] = Blood partitioning; assay type: in vitro ADME; settings: rat, Sprague-Dawley, authors call the ratio not accurate
# [3] = Whole blood stability; assay type: in vitro ADME, rat; settings: for half-life at 1 μM: male, Sprague-Dawley, rat
# Description: C16 (1 μM) or vehicle (DMSO) were incubated with fresh rat blood (Sprague Dawley, male) at 37°C at 5 time points in duplicate over a 120-min period. The final DMSO concentration in the incubation was 0.25%. Reactions were terminated following 0, 15, 30, 60 and 120 min by acetonitrile containing internal standard. The sampling plate was centrifuged (3000 rpm, 45 min, 4 °C) and the supernatants from each time point analyzed for parent compound by HPLC-MS/MS. The percentage of parent compound remaining at each time point relative to the 0-min sample was then calculated from HPLC-MS/MS peak area ratios (compound peak area/internal standard peak area).
# C. Stability and metabolism
# For details on ADME experiments not included underneath , please consult ref. [1].
# C.A. Whole blood stability
# Column: Kinetex XB-C18 column, 2.6 µm (150 x2.1 mm)
# Mobile phase A: H2O + 0.1% v/v Formic Acid
# Mobile phase B: MeCN + 0.1% v/v Formic Acid
# Autosampler syringe volume: 100 µL
# Weak wash: MeOH:H2O 1:9 v/v
# Strong wash: MeOH:H2O 95:5 v/v
# Table K. Gradient program.
# Mass spectrometric conditions
# Model: AB Sciex API5500 QTrap
# Mode: Multiple ion monitoring (MIM)
# Table L. MIM (parent to parent transitions).
# The areas and percentages for the parent and metabolites have been calculated using MIM data where parent to parent transitions have been used, and assume that each metabolite has the same point of ionisation and the sensitivity of the metabolite has not been affected by the biotransformation.
# [4] = Solubility in vehicles, laser nephelometry; assay type: physicochemical
# Description: The solubility of C16 was tested at 10 and 30 mg/mL for the indicated vehicles using laser nephelometry in 96-well plates (BMG LabTech NEPHELOstar microplate reader, BMG LabTech, USA). Solutions were prepared using solubilizing techniques including sonication, heating up to 37 °C and vortex. Solubility data was categorized as soluble (result ≤ +15 of blank), slightly soluble (result between +15 and +25 of blank) or not soluble (result > +25 of blank).
# C16 has low aqueous solubility, which limits the choice of preclinical formulations for in vivo studies. In this work, thirteen vehicles were evaluated for their applicability in single-dose studies (Table 1). For commonly used systems (entries a-e) visual determination of solubility was conducted, while for the more complex systems solubility was assessed by laser nephelometry.
# [5] = Stability test of C16 in 10% Solutol HS-15 / 90% PEG 600; assay type: physicochemical
# Description: Solutions of 30 mg/mL and 10 mg/mL of C16 were prepared and stored at room temperature and 4°C for 24 h. The stability of C16 was evaluated at 0, 1, 2, 4, 8 and 24 h after formulation by high-performance liquid chromatography-mass spectrometry/mass spectrometry (HPLC-MS/MS) (electrospray ionization, ESI+) analysis using oxybutynin as an internal standard (IS). Analyte samples were diluted 500x with acetonitrile (ACN)/H2O (20:80). This solution was further diluted 100x with an oxybutynin solution (1 ng/μL in ACN/H2O 20:80), giving a final concentration of 0.6 ng/μL and 0.2 ng/μL, respectively, for HPLC-MS/MS analysis (multiple reaction monitoring scan mode, MRM, see Section A of S1 File for more details). All analyses were performed in triplicates.
# A.A. Vehicles for single-dose studies a. Stability test of C16 in 10% Solutol HS -15 / 90% PEG 600
# Quantification was performed by calculating the ratio of the peak area (counts) of C16 and the IS. Results are expressed as relative differences to the peak ratio at 0 h (%RE, Table A).
# Table A. Stability in 10% Solutol HS -15 / 90% PEG 600: peak ratios.
# 10mg/mL at room temperature
# 30mg/mL at room temperature
# CV: Coefficient of variation; RE: Difference in peak area relative to indicated time point. […]
# [6] = biological target: CYP 3A4 (Homo sapiens, UniProt P08684); assay: CYP inhibition 3A4 (BFC substrate); assay type: in vitro ADME; settings: 10 μM
# Chain of CYP 3A4 (P08684 whole entry): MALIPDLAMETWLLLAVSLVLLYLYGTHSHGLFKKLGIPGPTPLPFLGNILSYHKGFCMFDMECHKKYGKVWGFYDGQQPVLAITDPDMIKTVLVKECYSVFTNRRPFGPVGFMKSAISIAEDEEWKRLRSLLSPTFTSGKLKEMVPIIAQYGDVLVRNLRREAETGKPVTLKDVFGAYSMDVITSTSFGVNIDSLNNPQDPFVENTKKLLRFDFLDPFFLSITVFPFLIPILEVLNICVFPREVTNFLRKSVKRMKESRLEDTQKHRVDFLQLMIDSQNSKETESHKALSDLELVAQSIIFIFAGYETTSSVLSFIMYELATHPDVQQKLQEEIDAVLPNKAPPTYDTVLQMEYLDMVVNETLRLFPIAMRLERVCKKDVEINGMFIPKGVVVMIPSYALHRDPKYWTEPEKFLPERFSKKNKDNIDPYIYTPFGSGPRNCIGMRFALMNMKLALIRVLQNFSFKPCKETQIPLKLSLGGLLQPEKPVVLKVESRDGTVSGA
# Text: as §1
# [7] = biological target: CYP 2D6 (Homo sapiens, UniProt P10635); assay: CYP inhibition 2D6 (MFC substrate); assay type: in vitro ADME; settings: 10 μM
# Chain of CYP 2D6 (P10635 whole entry): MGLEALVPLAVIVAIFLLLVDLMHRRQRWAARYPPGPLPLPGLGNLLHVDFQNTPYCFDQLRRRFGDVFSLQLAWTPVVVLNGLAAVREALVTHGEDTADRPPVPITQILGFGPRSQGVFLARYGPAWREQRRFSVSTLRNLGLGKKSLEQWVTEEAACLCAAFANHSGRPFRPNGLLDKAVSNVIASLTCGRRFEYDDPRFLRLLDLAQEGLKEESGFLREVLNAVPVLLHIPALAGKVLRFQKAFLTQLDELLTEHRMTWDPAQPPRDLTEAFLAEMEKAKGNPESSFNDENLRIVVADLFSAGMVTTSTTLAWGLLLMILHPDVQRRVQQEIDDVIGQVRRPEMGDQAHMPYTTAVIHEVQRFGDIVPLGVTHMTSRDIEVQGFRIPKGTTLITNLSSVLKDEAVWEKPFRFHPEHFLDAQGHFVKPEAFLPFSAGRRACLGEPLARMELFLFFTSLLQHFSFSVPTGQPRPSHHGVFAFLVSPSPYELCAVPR
# Text: as §1
structure (smiles),measurement,setting,value
"COc1cc(C(=O)/C=C/c2ccc(F)cc2)cc(OC)c1OC [C16, 4-fluoro-3’,4’,5’-trimethoxychalcone]",half-life at 1 μM,[1],> 120 min
same,blood plasma ratio at 1 μM,[2],9.2
same,"remaining at 15 min, 1 µM","[3]; fresh whole blood, male Sprague-Dawley rat blood, 15 min, read-out: Compound remaining (% of 0 min)",16.5%
same,"remaining at 30 min, 1 µM","[3]; fresh whole blood, male Sprague-Dawley rat blood, 30 min, read-out: Compound remaining (% of 0 min)",13.8%
same,"remaining at 60 min, 1 µM","[3]; fresh whole blood, male Sprague-Dawley rat blood, 60 min, read-out: Compound remaining (% of 0 min)",10.6%
same,"remaining at 120 min, 1 µM","[3]; fresh whole blood, male Sprague-Dawley rat blood, 120 min, read-out: Compound remaining (% of 0 min)",7%
same,Intrinsic clearance,"[3]; male Sprague-Dawley rat blood, Both Isomers integrated",120 µL/min/mL blood
same,half-life at 1 μM,"[3]; fresh whole blood, blood (rat, Sprague-Dawley), 1 μM, read-out: Half-life",6 min
same,half-life at 1 μM,"[3]; fresh whole blood, male Sprague-Dawley rat blood, Both Isomers integrated, read-out: t1/2",5.76 min
same,half-life at 1 μM,"[3]; fresh whole blood, male Sprague-Dawley rat blood, E-isomer only, read-out: t1/2",8.06 min
same,Solubility of C16 in vehicle: Result,"[4]; 10% Cremophor EL / 10% EtOH, 10 mg/mL",Insoluble ^b
same,Solubility of C16 in vehicle: Result,"[4]; 10% Cremophor EL / 10% EtOH, 30 mg/mL",Insoluble ^b
same,Solubility of C16 in vehicle: Result,"[4]; 10% DMA / 10% EtOH / 20% PG, 10 mg/mL",Insoluble ^b
same,Solubility of C16 in vehicle: Result,"[4]; 10% DMA / 10% EtOH / 20% PG, 30 mg/mL",Insoluble ^b
same,Solubility of C16 in vehicle: Result,"[4]; 10% Dimethylacetamide (DMA) / 90% PEG 600, 10 mg/mL",Soluble ^b
same,Solubility of C16 in vehicle: Result,"[4]; 10% Dimethylacetamide (DMA) / 90% PEG 600, 30 mg/mL",Soluble ^b
same,Solubility of C16 in vehicle: Result,"[4]; 10% Solutol HS-15 / 90% PEG 600, 10 mg/mL",Soluble ^b
same,Solubility of C16 in vehicle: Result,"[4]; 10% Solutol HS-15 / 90% PEG 600, 30 mg/mL",Soluble ^b
same,Solubility of C16 in vehicle: Result,"[4]; 10%DMA / 20%PG / 40% PEG 400, 10 mg/mL",Insoluble ^b
same,Solubility of C16 in vehicle: Result,"[4]; 10%DMA / 20%PG / 40% PEG 400, 30 mg/mL",Insoluble ^b
same,Solubility of C16 in vehicle: Result,"[4]; 20% PEG 400 / 10% Cremophor EL, 10 mg/mL",Insoluble ^b
same,Solubility of C16 in vehicle: Result,"[4]; 20% PEG 400 / 10% Cremophor EL, 30 mg/mL",Insoluble ^b
same,Solubility of C16 in vehicle: Result,"[4]; 40% PEG 400 / 10% EtOH, 10 mg/mL",Insoluble ^b
same,Solubility of C16 in vehicle: Result,"[4]; 40% PEG 400 / 10% EtOH, 30 mg/mL",Insoluble ^b
same,Solubility of C16 in vehicle: Result,"[4]; 100% Corn oil, 10 mg/mL",Insoluble ^b
same,Solubility of C16 in vehicle: Result,"[4]; 100% Corn oil, 30 mg/mL",Insoluble ^b
same,%RE to 0 h (peak ratio C16/IS),"[5]; 10mg/mL at 4 °C, 1 h",1.2%
same,%RE to 0 h (peak ratio C16/IS),"[5]; 10mg/mL at 4 °C, 2 h",-2.9%
same,%RE to 0 h (peak ratio C16/IS),"[5]; 10mg/mL at 4 °C, 4 h",1.4%
same,%RE to 0 h (peak ratio C16/IS),"[5]; 10mg/mL at 4 °C, 8 h",-0.6%
same,%RE to 0 h (peak ratio C16/IS),"[5]; 10mg/mL at 4 °C, 24 h",-1.4%
same,%RE to 0 h (peak ratio C16/IS),"[5]; 10mg/mL at room temperature, 1 h",1.8%
same,%RE to 0 h (peak ratio C16/IS),"[5]; 10mg/mL at room temperature, 2 h",1.8%
same,%RE to 0 h (peak ratio C16/IS),"[5]; 10mg/mL at room temperature, 4 h",-1.0%
same,%RE to 0 h (peak ratio C16/IS),"[5]; 10mg/mL at room temperature, 8 h",1.4%
same,%RE to 0 h (peak ratio C16/IS),"[5]; 10mg/mL at room temperature, 24 h",2.9%
same,%RE to 0 h (peak ratio C16/IS),"[5]; 30mg/mL at 4°C, 1 h",4.8%
same,%RE to 0 h (peak ratio C16/IS),"[5]; 30mg/mL at 4°C, 2 h",-6.1%
same,%RE to 0 h (peak ratio C16/IS),"[5]; 30mg/mL at 4°C, 4 h",3.5%
same,%RE to 0 h (peak ratio C16/IS),"[5]; 30mg/mL at 4°C, 8 h",5.0%
same,%RE to 0 h (peak ratio C16/IS),"[5]; 30mg/mL at 4°C, 24 h",1.6%
same,%RE to 0 h (peak ratio C16/IS),"[5]; 30mg/mL at room temperature, 1 h",-0.6%
same,%RE to 0 h (peak ratio C16/IS),"[5]; 30mg/mL at room temperature, 2 h",0.2%
same,%RE to 0 h (peak ratio C16/IS),"[5]; 30mg/mL at room temperature, 4 h",-3.1%
same,%RE to 0 h (peak ratio C16/IS),"[5]; 30mg/mL at room temperature, 8 h",-5.4%
same,%RE to 0 h (peak ratio C16/IS),"[5]; 30mg/mL at room temperature, 24 h",0.3%
same,Stability of solutions in 10% Solutol HS-15 / 90% PEG 600,"[5]; 10 and 30 mg/mL, room temperature (20–25 °C) and 4°C over 24 h",stable
same,CYP inhibition 3A4 (BFC substrate),[6],27 % inhibition of control
same,CYP inhibition 2D6 (MFC substrate),[7],-19 % inhibition of control

# Source: article PMC5823406, “Vehicle development, pharmacokinetics and toxicity of the anti-invasive agent 4-fluoro-3’,4’,5’-trimethoxychalcone in rodents” (PLoS ONE, 2018)
